assay: physchem; details: octan-1-ol/water, pH 7.4

Row | SMILES | logD
1 | CCC[C@@H](CN1CCCC1)N(C)C(=O)Cc1ccc(Cl)c(Cl)c1 | 2.27
2 | CCCCCCN1CC[C@]2(C)c3cc(O)ccc3CC1[C@@H]2C | 2.5
3 | CCOC(=O)C1(c2cccc(O)c2)CCCN(CC2CC2)C1 (configuration not stated) | 1.89
4 | Cc1ccc(CN2[C@@H]3CC[C@H]2C[C@@H](Oc2cccc(C(N)=O)c2)C3)s1 | 2.39
5 | NC(=O)c1cccc(S[C@H]2C[C@H]3CC[C@@H](C2)N3Cc2ccccc2)c1 | 2.22
6 | NC(=O)c1cc(F)cc(O[C@H]2C[C@H]3CC[C@@H](C2)N3Cc2ccccc2)c1 | 2.14
7 | Cc1cc(O[C@H]2C[C@H]3CC[C@@H](C2)N3Cc2ccccc2)cc(C(N)=O)c1 | 2.08
8 | Cc1cc(C(N)=O)ccc1O[C@H]1C[C@H]2CC[C@@H](C1)N2Cc1ccccc1 | 2.23
9 | CNC(=O)c1cccc(O[C@H]2C[C@H]3CC[C@@H](C2)N3Cc2ccccc2)c1 | 1.93
10 | Oc1cccc(O[C@H]2C[C@H]3CC[C@@H](C2)N3Cc2ccccc2)c1 | 2.3
11 | Cc1ccc(CN2[C@@H]3CC[C@H]2C[C@H](Oc2cccc(C(N)=O)c2)C3)s1 | 2.44
12 | NC(=O)c1cccc(O[C@@H]2C[C@H]3CC[C@@H](C2)N3CCc2ccccc2)c1 | 2
13 | CCN(CC)C(=O)c1ccc(C(=C2CCNCC2)c2ccc(Cl)c(Cl)c2)cc1 | 2.4
14 | CC(=O)NC1CC2CCCC(C1)N2C(=O)Nc1ccc(Cl)c(C(F)(F)F)c1 (configuration not stated) | 2.79
15 | CCN1CCN(C(=O)c2cc3cc(F)ccc3[nH]2)CC1 | 2.28
16 | CC(CC(=O)NCc1ccccc1)C1CCCO1 (configuration not stated) | 2.1
17 | O=c1cc(O)oc2c1c(=O)n(Cc1ccccc1)c1ccccc21 | 1.97
18 | CCc1c(C(=O)C(N)=O)c2c(OCC(N)=O)cccc2n1Cc1ccccc1 | 2.1
19 | Nc1nnc(Cc2ccc(Cl)cc2)s1 | 2.34
20 | CCCNC(=O)c1nnc2c(-c3cncc(C(=O)N4CCC4)c3)cccc2c1N | 2.79
21 | O=C1O[C@]2(CN3CCC2CC3)CN1c1ccc(Br)s1 | 2

Row | SMILES | logD
22 | CCN(CC)C(=O)c1ccc([C@H](c2cccc(NC(=O)C3CC3)c2)N2CCN(CCOC)CC2)cc1 | 2.35
23 | CCOC(=O)Nc1cccc([C@@H](c2ccc(C(=O)N(C)CC)cc2)N2CCN(Cc3nc[nH]c3C)CC2)c1 | 2.32
24 | CCOC(=O)Nc1cccc([C@@H](c2ccc(C(=O)N(C)CC)cc2)N2CCN(Cc3c[nH]c(C)n3)CC2)c1 | 2.11
25 | CNC(=O)c1ccc(Oc2ccc(C#C[C@]3(O)CN4CCC3CC4)cc2)cc1 | 1.99
26 | O=C(c1ccc(C(=C2CCN(Cc3cscn3)CC2)c2cccc3cccnc23)cc1)N1CCCC1 | 2.75
27 | CN(C)C(=O)c1ccc(C(=C2CCN(Cc3cscn3)CC2)c2cccc3cccnc23)cc1 | 2.3
28 | O=C(c1ccc(C(=C2CCN(Cc3cscn3)CC2)c2cccc3cccnc23)cc1)N1CCOCC1 | 2.12
29 | CN1CCN(C(=O)c2ccc(C(=C3CCN(Cc4cscn4)CC3)c3cccc4cccnc34)cc2)CC1 | 1.98
30 | O=C(c1ccc(C(=C2CCN(Cc3cscn3)CC2)c2cccc3cccnc23)cc1)N1CCC(O)CC1 | 1.89
31 | O=C(N[C@H]1CN2CCC1CC2)c1ccc(-c2ccccc2)s1 | 1.9
32 | Nc1nc(Nc2ccc3nc(-c4ccc(F)cc4)cc(N)c3c2)cc(-c2cccc(Cl)c2)n1 | 2.5
33 | Clc1ccc(C2CC=CCNC2)cc1Cl (configuration not stated) | 1.86
34 | Clc1ccc([C@H]2CC=CCNC2)cc1Cl | 1.95
35 | COC(=O)N1CCN(C(=O)Cc2ccc(Cl)c(Cl)c2)[C@H](CN2CCCC2)C1 | 2.05
36 | CN1CCC(C#N)(c2cccc3ccccc23)CC1 | 2.73
37 | O=C1CC(c2ccc(O)cc2)Oc2cc(O)cc(O)c21 (configuration not stated) | 2.6
38 | CNC1=Nc2ncccc2C(c2ccns2)=NC1c1cccs1 (configuration not stated) | 2.15
39 | CNC1=Nc2ncccc2C(c2ccco2)=NC1c1cccs1 (configuration not stated) | 1.85
40 | CNC(=O)c1ccc(Nc2nccc(-c3cnc(C4CC4)n3C(C)C)n2)cc1 | 2.77
41 | Cc1cc(=O)[nH]c2sc(C(=O)c3ccc(Br)cc3)c(N)c12 | 2.57
42 | COC(=O)N1CCN(C(=O)Cc2ccc(Cl)c(Cl)c2)[C@@H](CN2CCCC2)C1 | 1.97

Source: ChEMBL document CHEMBL3301361, “Experimental in vitro DMPK and physicochemical data on a set of publicly disclosed compounds”
